Source: patent US20250223561A1, “PHARMACEUTICAL COMPOSITION CONTAINING miR-140 AND METHOD FOR PRODUCING SAME” (HIROKO SCIENCE INC., priority 2022, published 2025)
Values joined by “and” are separate entries in the source; they are usually repeats but may differ in a detail not shown here. Equal values may be shown once.

What was measured:
[1] = test system: immortalized chondrocytes; assay: Total RNA extracted from exosomal fractions of immortalized chondrocytes treated with exosome release enhancers (Nano Drop); format: cell-based, human; conditions: for Nucleic Acid conc.: RNA from exosomal fraction of culture supernatant, cells cultured with 10 nM estradiol, enhancer added on day four (10 uM monensin, 20 nM aplimod, 10 uM D609), Nano Drop, dilution ratio 1; for Amount of RNAs: same samples, liquid volume 15 ul
Procedure: (§1) The fifth passage of immortalized chondrocytes was passaged and seeded in four flasks with a volume of 75 cm^2 at a concentration of 1.5×10^6 cells per flask. Culturing was started after adding 10 nM of estradiol to three of them and without adding it to one of them. […] The medium was collected from each flask the following day and then centrifuged at 1,500 rpm for 5 min. The supernatants were further filtered through a filter with a pore size of 0.22 um and stored as exosomal fractions at −80° C. until an analysis of miR.
MicroRNAs were extracted from the exosomal fractions in Example 2 using an exoRNAeasy Serum/Plasma Maxi Kit (Qiagen). The A260/A280 and A260/A230 ratios of the extracted RNAs were measured using a spectrophotometer Nano Drop One (Thermo Fisher Scientific), showing that the samples were free of protein and salt impurities. Electrophoresis of the samples was further conducted using Agilent 2100 Bioanalyzer (Aligent Technologies), confirming that only the target nucleic acids were contained.

miR-140 = assay: Expression of miR-140 in exosomal fractions by real-time PCR; format: cell-based, human; conditions: for Cp value: Hs miR-140_1 primer assay (miR-140-5p), single replicates n1, n2, low Cp value means a large amount of miR-140; for Cp value Average: Hs miR-140_1 primer assay, average of n1 and n2
Procedure: as §1
cDNA synthesis was conducted with the extracted RNAs using miScript II RT Kit (catalog No. 218160, Qiagen) under the following conditions.
Real-time PCR reactions were conducted on a real-time PCR system (LightCycler 480, Roche) under the following conditions using miScript SYBR Green PCR Kit (catalog No. 218073, Qiagen) with the cDNAs synthesized as described above. The primer for the miR-140 measurement was Hs_miR-140_1 miScript Primer Assay (catalog No. MS00003500, has-miR-140-5p: MIMAT0000431).

SMILES | Nucleic Acid conc. [1] [ng/µL] | Amount of RNAs [1] [ng] | Cp value (miR-140; listed as 4-D) | Cp value Average (miR-140) | amount of nucleic acid collected (comparison among treatments) ([1]; compared with control, aplimod and D609 samples) | miR-140 content compared with the other groups (miR-140; from real-time PCR Cp values) | Cp value (miR-140; listed as 3-Apl)
S=C(S)OC1CC2CC1C1CCCC21 (stereo not drawn) [D, D609] | 206.3 | 3094.4 | 36.84 and 36.89 | 36.87 | – | – | –
CC[C@@]1([C@@H]2O[C@@H]([C@H]3O[C@@](O)(CO)[C@H](C)C[C@@H]3C)C[C@@H]2C)CC[C@H]([C@]2(C)CC[C@]3(C[C@H](O)[C@@H](C)[C@@H]([C@@H](C)[C@@H](OC)[C@H](C)C(=O)O)O3)O2)O1 [Mo, monensin] | 290.5 | 4357.6 | – | – | highest | nearly twice as much miR-140 as the others | –
Cc1cccc(/C=N/Nc2cc(N3CCOCC3)nc(OCCc3ccccn3)n2)c1 [Apl, aplimod] | 179.7 | 2695.9 | – | 36.77 | – | – | 36.78 and 36.76
